Oligonucleotides are given in HELM: sugar(base)linkage, 5' to 3'; d 2'-deoxyribose, r ribose, m 2'-O-methylribose, p phosphate. ss, as = sense and antisense strand
These substances were tested against Mmp7 (rat) (assay: reporter assay of Huesken 2005). Settings: siRNA.
Note: test concentration or dose not given here.

For “RNA1{r(A)p.r(G)p.r(U)p.r(G)p.r(C)p.r(C)p.r(A)p.r(G)p.r(A)p.r(U)p.r(G)p.r(U)p.r(U)p.r(G)p.r(C)p.r(A)p.r(G)p.r(A)p.r(A)p.d(T)p.d(T)}|RNA2{r(U)p.r(U)p.r(C)p.r(U)p.r(G)p.r(C)p.r(A)p.r(A)p.r(C)p.r(A)p.r(U)p.r(C)p.r(U)p.r(G)p.r(G)p.r(C)p.r(A)p.r(C)p.r(U)p.d(C)p.d(C)}$$$RNA1{StrandType:ss}|RNA2{StrandType:as}$”, which normalised inhibition (eCFP-eYFP dual reporter) is on record?
Its normalised inhibition (eCFP-eYFP dual reporter) is 115%.

Which normalised inhibition (eCFP-eYFP dual reporter) does the source give for “RNA1{r(A)p.r(G)p.r(U)p.r(A)p.r(C)p.r(U)p.r(G)p.r(G)p.r(A)p.r(C)p.r(G)p.r(G)p.r(A)p.r(U)p.r(G)p.r(G)p.r(U)p.r(G)p.r(A)p.d(T)p.d(T)}|RNA2{r(U)p.r(C)p.r(A)p.r(C)p.r(C)p.r(A)p.r(U)p.r(C)p.r(C)p.r(G)p.r(U)p.r(C)p.r(C)p.r(A)p.r(G)p.r(U)p.r(A)p.r(C)p.r(U)p.d(C)p.d(A)}$$$RNA1{StrandType:ss}|RNA2{StrandType:as}$” here?
Its normalised inhibition (eCFP-eYFP dual reporter) is 90.5%.

For “RNA1{r(C)p.r(C)p.r(C)p.r(U)p.r(A)p.r(C)p.r(C)p.r(U)p.r(A)p.r(U)p.r(C)p.r(A)p.r(A)p.r(G)p.r(G)p.r(A)p.r(G)p.r(A)p.r(U)p.d(T)p.d(T)}|RNA2{r(A)p.r(U)p.r(C)p.r(U)p.r(C)p.r(C)p.r(U)p.r(U)p.r(G)p.r(A)p.r(U)p.r(A)p.r(G)p.r(G)p.r(U)p.r(A)p.r(G)p.r(G)p.r(G)p.d(T)p.d(A)}$$$RNA1{StrandType:ss}|RNA2{StrandType:as}$”, which normalised inhibition (eCFP-eYFP dual reporter) is on record?
The normalised inhibition (eCFP-eYFP dual reporter) was 102%.

For “RNA1{r(G)p.r(C)p.r(U)p.r(U)p.r(C)p.r(G)p.r(C)p.r(A)p.r(A)p.r(G)p.r(G)p.r(G)p.r(G)p.r(A)p.r(G)p.r(A)p.r(U)p.r(C)p.r(A)p.d(T)p.d(T)}|RNA2{r(U)p.r(G)p.r(A)p.r(U)p.r(C)p.r(U)p.r(C)p.r(C)p.r(C)p.r(C)p.r(U)p.r(U)p.r(G)p.r(C)p.r(G)p.r(A)p.r(A)p.r(G)p.r(C)p.d(C)p.d(A)}$$$RNA1{StrandType:ss}|RNA2{StrandType:as}$”, which normalised inhibition (eCFP-eYFP dual reporter) is on record?
The normalised inhibition (eCFP-eYFP dual reporter) was 105%.

With “RNA1{r(C)p.r(G)p.r(C)p.r(A)p.r(C)p.r(U)p.r(U)p.r(C)p.r(A)p.r(G)p.r(U)p.r(G)p.r(G)p.r(G)p.r(A)p.r(A)p.r(C)p.r(A)p.r(G)p.d(T)p.d(T)}|RNA2{r(C)p.r(U)p.r(G)p.r(U)p.r(U)p.r(C)p.r(C)p.r(C)p.r(A)p.r(C)p.r(U)p.r(G)p.r(A)p.r(A)p.r(G)p.r(U)p.r(G)p.r(C)p.r(G)p.d(G)p.d(T)}$$$RNA1{StrandType:ss}|RNA2{StrandType:as}$” as the substance, how does the normalised inhibition (eCFP-eYFP dual reporter) read?
Its normalised inhibition (eCFP-eYFP dual reporter) is 91.1%.

With “RNA1{r(C)p.r(C)p.r(U)p.r(C)p.r(G)p.r(G)p.r(C)p.r(G)p.r(G)p.r(A)p.r(G)p.r(A)p.r(U)p.r(G)p.r(C)p.r(U)p.r(C)p.r(A)p.r(C)p.d(T)p.d(T)}|RNA2{r(G)p.r(U)p.r(G)p.r(A)p.r(G)p.r(C)p.r(A)p.r(U)p.r(C)p.r(U)p.r(C)p.r(C)p.r(G)p.r(C)p.r(C)p.r(G)p.r(A)p.r(G)p.r(G)p.d(C)p.d(C)}$$$RNA1{StrandType:ss}|RNA2{StrandType:as}$” as the substance, how does the normalised inhibition (eCFP-eYFP dual reporter) read?
The normalised inhibition (eCFP-eYFP dual reporter) was 72.1%.

For “RNA1{r(G)p.r(A)p.r(G)p.r(U)p.r(G)p.r(C)p.r(C)p.r(A)p.r(G)p.r(A)p.r(U)p.r(G)p.r(U)p.r(U)p.r(G)p.r(C)p.r(A)p.r(G)p.r(A)p.d(T)p.d(T)}|RNA2{r(U)p.r(C)p.r(U)p.r(G)p.r(C)p.r(A)p.r(A)p.r(C)p.r(A)p.r(U)p.r(C)p.r(U)p.r(G)p.r(G)p.r(C)p.r(A)p.r(C)p.r(U)p.r(C)p.d(C)p.d(A)}$$$RNA1{StrandType:ss}|RNA2{StrandType:as}$”, which normalised inhibition (eCFP-eYFP dual reporter) is on record?
The normalised inhibition (eCFP-eYFP dual reporter) was 104%.

For “RNA1{r(U)p.r(G)p.r(A)p.r(A)p.r(C)p.r(U)p.r(U)p.r(C)p.r(C)p.r(U)p.r(G)p.r(U)p.r(U)p.r(U)p.r(G)p.r(U)p.r(U)p.r(G)p.r(C)p.d(T)p.d(T)}|RNA2{r(G)p.r(C)p.r(A)p.r(A)p.r(C)p.r(A)p.r(A)p.r(A)p.r(C)p.r(A)p.r(G)p.r(G)p.r(A)p.r(A)p.r(G)p.r(U)p.r(U)p.r(C)p.r(A)p.d(C)p.d(G)}$$$RNA1{StrandType:ss}|RNA2{StrandType:as}$”, which normalised inhibition (eCFP-eYFP dual reporter) is on record?
The normalised inhibition (eCFP-eYFP dual reporter) was 33.7%.

For “RNA1{r(A)p.r(A)p.r(G)p.r(U)p.r(G)p.r(A)p.r(C)p.r(C)p.r(G)p.r(C)p.r(A)p.r(C)p.r(U)p.r(U)p.r(C)p.r(A)p.r(G)p.r(U)p.r(G)p.d(T)p.d(T)}|RNA2{r(C)p.r(A)p.r(C)p.r(U)p.r(G)p.r(A)p.r(A)p.r(G)p.r(U)p.r(G)p.r(C)p.r(G)p.r(G)p.r(U)p.r(C)p.r(A)p.r(C)p.r(U)p.r(U)p.d(C)p.d(T)}$$$RNA1{StrandType:ss}|RNA2{StrandType:as}$”, which normalised inhibition (eCFP-eYFP dual reporter) is on record?
Its normalised inhibition (eCFP-eYFP dual reporter) is 79.7%.

“RNA1{r(G)p.r(G)p.r(A)p.r(C)p.r(U)p.r(C)p.r(A)p.r(G)p.r(G)p.r(C)p.r(G)p.r(U)p.r(G)p.r(A)p.r(A)p.r(C)p.r(U)p.r(U)p.r(C)p.d(T)p.d(T)}|RNA2{r(G)p.r(A)p.r(A)p.r(G)p.r(U)p.r(U)p.r(C)p.r(A)p.r(C)p.r(G)p.r(C)p.r(C)p.r(U)p.r(G)p.r(A)p.r(G)p.r(U)p.r(C)p.r(C)p.d(T)p.d(C)}$$$RNA1{StrandType:ss}|RNA2{StrandType:as}$” was tested. Which normalised inhibition (eCFP-eYFP dual reporter) did it give?
Its normalised inhibition (eCFP-eYFP dual reporter) is 70.4%.

“RNA1{r(U)p.r(C)p.r(U)p.r(G)p.r(U)p.r(U)p.r(C)p.r(C)p.r(C)p.r(A)p.r(G)p.r(U)p.r(U)p.r(C)p.r(U)p.r(G)p.r(U)p.r(G)p.r(A)p.d(T)p.d(T)}|RNA2{r(U)p.r(C)p.r(A)p.r(C)p.r(A)p.r(G)p.r(A)p.r(A)p.r(C)p.r(U)p.r(G)p.r(G)p.r(G)p.r(A)p.r(A)p.r(C)p.r(A)p.r(G)p.r(A)p.d(A)p.d(G)}$$$RNA1{StrandType:ss}|RNA2{StrandType:as}$” was tested. Which normalised inhibition (eCFP-eYFP dual reporter) did it give?
The normalised inhibition (eCFP-eYFP dual reporter) was 99.6%.

Which normalised inhibition (eCFP-eYFP dual reporter) does the source give for “RNA1{r(G)p.r(G)p.r(G)p.r(G)p.r(C)p.r(C)p.r(A)p.r(G)p.r(G)p.r(C)p.r(C)p.r(U)p.r(C)p.r(G)p.r(G)p.r(C)p.r(G)p.r(G)p.r(A)p.d(T)p.d(T)}|RNA2{r(U)p.r(C)p.r(C)p.r(G)p.r(C)p.r(C)p.r(G)p.r(A)p.r(G)p.r(G)p.r(C)p.r(C)p.r(U)p.r(G)p.r(G)p.r(C)p.r(C)p.r(C)p.r(C)p.d(G)p.d(G)}$$$RNA1{StrandType:ss}|RNA2{StrandType:as}$” here?
Its normalised inhibition (eCFP-eYFP dual reporter) is 50.8%.

For “RNA1{r(A)p.r(C)p.r(U)p.r(U)p.r(C)p.r(A)p.r(G)p.r(U)p.r(C)p.r(U)p.r(U)p.r(A)p.r(C)p.r(A)p.r(A)p.r(A)p.r(G)p.r(G)p.r(A)p.d(T)p.d(T)}|RNA2{r(U)p.r(C)p.r(C)p.r(U)p.r(U)p.r(U)p.r(G)p.r(U)p.r(A)p.r(A)p.r(G)p.r(A)p.r(C)p.r(U)p.r(G)p.r(A)p.r(A)p.r(G)p.r(U)p.d(C)p.d(T)}$$$RNA1{StrandType:ss}|RNA2{StrandType:as}$”, which normalised inhibition (eCFP-eYFP dual reporter) is on record?
The normalised inhibition (eCFP-eYFP dual reporter) was 112%.

“RNA1{r(U)p.r(G)p.r(U)p.r(U)p.r(U)p.r(G)p.r(U)p.r(U)p.r(G)p.r(C)p.r(C)p.r(A)p.r(C)p.r(U)p.r(C)p.r(A)p.r(U)p.r(G)p.r(A)p.d(T)p.d(T)}|RNA2{r(U)p.r(C)p.r(A)p.r(U)p.r(G)p.r(A)p.r(G)p.r(U)p.r(G)p.r(G)p.r(C)p.r(A)p.r(A)p.r(C)p.r(A)p.r(A)p.r(A)p.r(C)p.r(A)p.d(G)p.d(G)}$$$RNA1{StrandType:ss}|RNA2{StrandType:as}$” was tested. Which normalised inhibition (eCFP-eYFP dual reporter) did it give?
Its normalised inhibition (eCFP-eYFP dual reporter) is 105%.

Which normalised inhibition (eCFP-eYFP dual reporter) does the source give for “RNA1{r(C)p.r(C)p.r(G)p.r(G)p.r(A)p.r(G)p.r(A)p.r(A)p.r(G)p.r(U)p.r(G)p.r(A)p.r(C)p.r(C)p.r(G)p.r(C)p.r(A)p.r(C)p.r(U)p.d(T)p.d(T)}|RNA2{r(A)p.r(G)p.r(U)p.r(G)p.r(C)p.r(G)p.r(G)p.r(U)p.r(C)p.r(A)p.r(C)p.r(U)p.r(U)p.r(C)p.r(U)p.r(C)p.r(C)p.r(G)p.r(G)p.d(C)p.d(T)}$$$RNA1{StrandType:ss}|RNA2{StrandType:as}$” here?
The normalised inhibition (eCFP-eYFP dual reporter) was 94.4%.

How did the normalised inhibition (eCFP-eYFP dual reporter) turn out when “RNA1{r(C)p.r(A)p.r(A)p.r(A)p.r(G)p.r(A)p.r(A)p.r(G)p.r(G)p.r(C)p.r(C)p.r(A)p.r(C)p.r(C)p.r(A)p.r(G)p.r(U)p.r(G)p.r(C)p.d(T)p.d(T)}|RNA2{r(G)p.r(C)p.r(A)p.r(C)p.r(U)p.r(G)p.r(G)p.r(U)p.r(G)p.r(G)p.r(C)p.r(C)p.r(U)p.r(U)p.r(C)p.r(U)p.r(U)p.r(U)p.r(G)p.d(T)p.d(T)}$$$RNA1{StrandType:ss}|RNA2{StrandType:as}$” was run?
The normalised inhibition (eCFP-eYFP dual reporter) was 38.2%.

With “RNA1{r(U)p.r(C)p.r(A)p.r(U)p.r(A)p.r(A)p.r(U)p.r(U)p.r(G)p.r(G)p.r(C)p.r(U)p.r(U)p.r(C)p.r(G)p.r(C)p.r(A)p.r(A)p.r(G)p.d(T)p.d(T)}|RNA2{r(C)p.r(U)p.r(U)p.r(G)p.r(C)p.r(G)p.r(A)p.r(A)p.r(G)p.r(C)p.r(C)p.r(A)p.r(A)p.r(U)p.r(U)p.r(A)p.r(U)p.r(G)p.r(A)p.d(T)p.d(G)}$$$RNA1{StrandType:ss}|RNA2{StrandType:as}$” as the substance, how does the normalised inhibition (eCFP-eYFP dual reporter) read?
The normalised inhibition (eCFP-eYFP dual reporter) was 75.5%.

“RNA1{r(A)p.r(G)p.r(A)p.r(A)p.r(U)p.r(U)p.r(C)p.r(U)p.r(C)p.r(A)p.r(C)p.r(U)p.r(A)p.r(A)p.r(U)p.r(G)p.r(C)p.r(C)p.r(A)p.d(T)p.d(T)}|RNA2{r(U)p.r(G)p.r(G)p.r(C)p.r(A)p.r(U)p.r(U)p.r(A)p.r(G)p.r(U)p.r(G)p.r(A)p.r(G)p.r(A)p.r(A)p.r(U)p.r(U)p.r(C)p.r(U)p.d(G)p.d(C)}$$$RNA1{StrandType:ss}|RNA2{StrandType:as}$” was tested. Which normalised inhibition (eCFP-eYFP dual reporter) did it give?
The normalised inhibition (eCFP-eYFP dual reporter) was 107%.

How did the normalised inhibition (eCFP-eYFP dual reporter) turn out when “RNA1{r(C)p.r(U)p.r(A)p.r(U)p.r(C)p.r(A)p.r(A)p.r(G)p.r(G)p.r(A)p.r(G)p.r(A)p.r(U)p.r(C)p.r(A)p.r(U)p.r(U)p.r(C)p.r(A)p.d(T)p.d(T)}|RNA2{r(U)p.r(G)p.r(A)p.r(A)p.r(U)p.r(G)p.r(A)p.r(U)p.r(C)p.r(U)p.r(C)p.r(C)p.r(U)p.r(U)p.r(G)p.r(A)p.r(U)p.r(A)p.r(G)p.d(G)p.d(T)}$$$RNA1{StrandType:ss}|RNA2{StrandType:as}$” was run?
Its normalised inhibition (eCFP-eYFP dual reporter) is 115%.

With “RNA1{r(G)p.r(A)p.r(A)p.r(G)p.r(C)p.r(C)p.r(C)p.r(A)p.r(G)p.r(G)p.r(U)p.r(G)p.r(U)p.r(G)p.r(G)p.r(A)p.r(G)p.r(U)p.r(G)p.d(T)p.d(T)}|RNA2{r(C)p.r(A)p.r(C)p.r(U)p.r(C)p.r(C)p.r(A)p.r(C)p.r(A)p.r(C)p.r(C)p.r(U)p.r(G)p.r(G)p.r(G)p.r(C)p.r(U)p.r(U)p.r(C)p.d(T)p.d(G)}$$$RNA1{StrandType:ss}|RNA2{StrandType:as}$” as the substance, how does the normalised inhibition (eCFP-eYFP dual reporter) read?
The normalised inhibition (eCFP-eYFP dual reporter) was 94%.

Reference: the OligoGym collection
